For data set [1], the system named is N. fowleri ATCC® 30215™ cyst stage. As to the kind of experiment: In vitro cysticidal activity against N. fowleri cysts (alamarBlue), strain ATCC 30215. As to conditions: Naegleria fowleri, ATCC30215, mean ± SD. In kind it is cell-based. The protocol: (§1) Following the assays against trophozoites, the compounds were further evaluated for their activity against the cyst stage of N. fowleri (ATCC® 30808™ and ATCC® 30215™). To induce cyst formation, the trophozoites were centrifuged, resuspended in MYAS medium, and incubated under slight agitation at room temperature for 10 days. After this, mature cysts were harvested, pretreated with 0.5% SDS, and seeded in a 96-well microtiter plate at 2 × 10^5 cells/mL. The drugs were tested in serial dilutions, and after 24 h of incubation at 37 °C, the medium was replaced with fresh Bactocasitone medium. The colorimetric alamarBlue® assay was used to assess cyst viability, with 10 µL of reagent added to each well. The plates were incubated for an additional 72 h at 37 °C, and fluorescence was measured using the EnSpire® Multimode Plate Reader (PerkinElmer, Madrid, Spain). The results were compared to a negative control (untreated cysts) and a positive control (amphotericin B and miltefosine). The IC50 values were determined through nonlinear regression analysis.

The test system of data set [2] is N. fowleri trophozoites. As to the kind of experiment: Chromatin condensation (Hoechst 33342 / propidium iodide staining). The data set is classed as cell-based, Naegleria fowleri. As to conditions: IC90, 24 h; compound 7 on ATCC 30808, compound 10 on ATCC 30215, amphotericin B on both. The protocol: (§2) To evaluate the induction of PCD, N. fowleri strains ATCC® 30808™ and ATCC® 30215™ were treated with the IC90 concentration of the compounds 7 and 10 for 24 h at 37 °C. After incubation, specific fluorescent markers were used to assess various detectable metabolic events, following the manufacturers’ instructions for each assay. Amphotericin B was used as a positive control, and untreated amoebae served as a negative control. Fluorescence imaging was performed using EVOS M5000 Cell Imaging System (Life Technologies, Madrid, Spain) and confocal microscope Leica DMI 4000 B equipped with Leica Application Suite X software version 3.5.5.19976 and Leica HC PL APO 63x/1.40 OIL CS2 objective (Leica Microsystems, Wetzlar, Germany). The fluorescence obtained was expressed as mean ± standard deviation from at least three independent experiments.
To evaluate the chromatin condensation, cells were stained with Hoechst 33,342 (1 µM) and propidium iodide (PI) (1 µM) for 20 min in the dark. Hoechst 33,342 binds to condensed chromatin in apoptotic cells and emits blue fluorescence, while PI enters cells with compromised membranes, indicative of late apoptosis or necrosis, and binds to DNA, emitting red fluorescence. […] Untreated cells were included as negative controls to establish baseline fluorescence levels.

Data set [3] has as its system N. fowleri trophozoites. In words: Plasma membrane permeability (SYTOX Green). The data set is classed as cell-based, Naegleria fowleri. Conditions: IC90, 24 h; compound 7 on ATCC 30808, compound 10 on ATCC 30215, amphotericin B on both. Here is the method:
as §2
After treatment, SYTOX™ Green nucleic acid stain (Life Technologies, Madrid, Spain) was added to each well at a final concentration of 1 μg/mL and incubated for 15 min in the dark. […] In contrast, viable cells with intact membranes exclude the dye and remain non-fluorescent. Untreated trophozoites were used as negative controls.

The test system of data set [4] is N. fowleri ATCC® 30808™ trophozoites. In words: In vitro amoebicidal activity against N. fowleri trophozoites (alamarBlue), strain ATCC 30808. In kind it is cell-based, Naegleria fowleri. Conditions: for IC50: Naegleria fowleri; for IC50 / N. fowleri ATCC 30808 IC50: mean ± SD; for N. fowleri ATCC 30808 SI (CC50/IC50): selectivity index vs murine macrophages J774; for N. fowleri ATCC 30808 IC50: trophozoites. Here is the method: (§3) The in vitro activity of the tested compounds against Naegleria fowleri trophozoites was evaluated using two clinical strains obtained from the American Type Culture Collection (ATCC® 30808™ and ATCC® 30215™). Trophozoites were cultured axenically at 37 °C in 2% (w/v) Bactocasitone medium (Thermo Fisher Scientific, Madrid, Spain), supplemented with 10% (v/v) fetal bovine serum (FBS), […] penicillin G sodium salt, and 0.5 mg/mL streptomycin sulfate (Sigma-Aldrich, Madrid, Spain). For cytotoxicity assessment, murine macrophages from the J774A.1 cell line (ATCC® TIB-67) were cultured in Dulbecco’s Modified Eagle’s Medium (DMEM) supplemented with 10% (v/v) FBS and 10 μg/mL gentamicin sulfate (Sigma-Aldrich, Madrid, Spain). The macrophages were maintained at 37 °C in a 5% CO2 atmosphere.
(§4) The trophocidal activity of the compounds was evaluated using the alamarBlue® colorimetric assay. N. fowleri trophozoites were seeded in duplicate in a 96-well microtiter plate at a concentration of 2 × 10^5 cells/mL and incubated for adhesion in Bactocasitone medium (2% v/w) (Thermo Fisher Scientific, Madrid, Spain), supplemented with 10% (v/v) fetal bovine serum (FBS), 0.3% penicillin G sodium salt, and 0.5 mg/mL streptomycin sulfate (Sigma-Aldrich, Madrid, Spain). Different concentrations of the evaluated compounds, prepared in fresh Bactocasitone medium, were added to the wells (50 µL per well). The negative control consisted of trophozoites incubated with the medium alone. After adding 10 µL of alamarBlue® reagent, the plates were incubated at 37 °C for 48 h with slight agitation. The data were analyzed using nonlinear regression with GraphPad Prism 9 software to determine the IC50 and IC90 values, which were then used for further studies on PCD [10].

A short description of data set [5]: In vitro cytotoxicity on murine macrophages (alamarBlue). In kind it is cell-based. As to conditions: mouse, J774A.1 murine macrophage cell line (ATCC TIB-67), mean ± SD. Here is the method: as §3
The cytotoxicity of the compounds was assessed against the murine macrophage cell line J774A.1 (ATCC® TIB-67™). Cells were maintained at 37 °C in a 5% CO2 atmosphere in DMEM medium. In the assay, different concentrations of the compounds were added to the cells in a 96-well microtiter plate, and after 24 h of incubation, 10 µL of alamarBlue® reagent was added. The fluorescence intensity was measured using the EnSpire® Multimode Plate Reader (PerkinElmer, Madrid, Spain). The cytotoxic concentration required to reduce cell viability by 50% (CC50) was determined through nonlinear regression analysis using GraphPad Prism 9 software. The results were compared with those obtained against trophozoites to calculate the selectivity index (S.I.) for N. fowleri.

The subject of data set [6] is N. fowleri ATCC® 30808™ cyst stage. As to the kind of experiment: In vitro cysticidal activity against N. fowleri cysts (alamarBlue), strain ATCC 30808. The data set is classed as cell-based, Naegleria fowleri. As to conditions: Naegleria fowleri, ATCC30808, mean ± SD. Here is the method:
as §1

In data set [7] the test system is N. fowleri ATCC® 30215™ trophozoites. As to the kind of experiment: In vitro amoebicidal activity against N. fowleri trophozoites (alamarBlue), strain ATCC 30215. Conditions: trophozoite stage; for IC50: Naegleria fowleri, ATCC30215, 48 h, mean ± SD; for N. fowleri ATCC 30215 SI (CC50/IC50): selectivity index vs murine macrophages J774. In kind it is cell-based, Naegleria fowleri. The protocol: as §3, §4

Where [8] appears, read: ATCC30808, 48 h, trophozoite stage, 48 h.
Where [9] appears, read: ATCC30808, trophozoites, extracts, fractions, subfractions, isolated compound and reference drugs.

The text below walks through data of article PMC12470768, “Mentha rotundifolia, a Source of Amoebicidal Agents Against Naegleria fowleri” (International Journal of Molecular Sciences, 2025).

For the molecule `C[C@@H]1[C@H](O)[C@@H](C)/C=C/C=C/C=C/C=C/C=C/C=C/C=C/[C@H](O[C@@H]2O[C@H](C)[C@@H](O)[C@H](N)[C@@H]2O)C[C@@H]2O[C@](O)(C[C@@H](O)C[C@@H](O)[C@H](O)CC[C@@H](O)C[C@@H](O)CC(=O)O[C@H]1C)C[C@H](O)[C@H]2C(=O)O` [Amphotericin B, reference compound], the IC50 was determined as 0.62 ± 0.04 µM in data set [1]; 0.12 ± 0.03 µM in data set [4] (setting [8]); 0.18 µg/mL in data set [4] (setting [9]); 0.53 ± 0.03 µM in data set [6]; 0.16 ± 0.01 µM in data set [7]. Besides, the “chromatin condensation (Hoechst 33342 fluorescence)” value in the data set on N. fowleri trophozoites [2] is recorded as “clear chromatin condensation”. Also, in the data set with N. fowleri trophozoites [3], the “plasma membrane integrity (SYTOX Green fluorescence)” value is on record as “bright green fluorescence”. For the same molecule, the “N. fowleri ATCC 30808 SI (CC50/IC50)” value in data set [4] (trophozoite stage) was over 1650.89. For the same molecule, the “N. fowleri ATCC 30808 IC50” value in data set [4] (extracts, fractions, subfractions, isolated compound and reference drugs, listed as A) was 0.162 ± 0.002 µg/mL. For the same molecule, the CC50 at 24 h in data set [5] was over 200 µM. For the same molecule, the “N. fowleri ATCC 30215 SI (CC50/IC50)” value in data set [7] is listed as over 1250.

Turning to `C[C@H]1[C@H](C)CC[C@]2(C(=O)O)CC[C@]3(C)C(=CC[C@@H]4[C@@]5(C)CC[C@H](O)C(C)(C)[C@@H]5CC[C@]43C)[C@H]12` [Compound 1, ursolic acid], the values for the IC50 in data set [4] (setting [8]), in data set [4] (setting [9]) and in data set [7] were 142 ± 8.17 µM, 65.9 µg/mL and 82.5 ± 8.43 µM, respectively. For the same molecule, in data set [4] (extracts, fractions, subfractions, isolated compound and reference drugs, listed as UA (1)), the “N. fowleri ATCC 30808 IC50” value was 65.91 ± 3.73 µg/mL. In addition, half-maximal cytotoxicity in data set [5] (CC50 at 24 h) was put at 35.9 ± 9.28 µM. For the same molecule, the “N. fowleri ATCC 30215 SI (CC50/IC50)” value in data set [7] is listed as 0.43.

For the molecule `CCCCCCCCCCCCCCCCOP(=O)([O-])OCC[N+](C)(C)C` [Miltefosine, reference compound], the IC50 is 37.8 ± 5.6 µM in data set [1]; 38.7 ± 4.23 µM in data set [4] (setting [8]); 12.7 ± 1.49 µg/mL in data set [4] (setting [9]); 21.5 ± 2.62 µM in data set [6]; 81.6 ± 7.23 µM in data set [7]. Moreover, the “N. fowleri ATCC 30808 SI (CC50/IC50)” value in data set [4] (trophozoite stage) turned out to be 3.30. The molecule further gave a CC50 at 24 h in data set [5] of 128 ± 8.85 µM. For the same molecule, in data set [7], the “N. fowleri ATCC 30215 SI (CC50/IC50)” value was 1.57.

Turning to `COC(=O)[C@]12CC[C@@H](C)[C@H](C)C1C1=CCC3[C@@]4(C)CC[C@H](OC(=O)CCCC(=O)O)C(C)(C)C4CC[C@@]3(C)[C@]1(C)CC2` (stereo partly shown) [Compound 8, 3-O-(Hemiglutaryl)-methyl ursolate], the midpoint of inhibition in data set [4] (setting [8]), the IC50, lay at 66.6 ± 9.25 µM. Further, in data set [4] (trophozoite stage), the “N. fowleri ATCC 30808 SI (CC50/IC50)” value is recorded as 1.24. Also, in data set [5], the CC50 at 24 h was 85 ± 5 µM. Also, in data set [7], the IC50 turned out to be 38.7 ± 2.15 µM and the “N. fowleri ATCC 30215 SI (CC50/IC50)” value is listed as 2.20.

With `COC(=O)[C@]12CC[C@@H](C)[C@H](C)[C@H]1C1=CC[C@@H]3[C@@]4(C)CC[C@H](O)C(C)(C)[C@@H]4CC[C@@]3(C)[C@]1(C)CC2` [Compound 2, methyl ursolate], the IC50 amounted to 88.7 ± 3.02 µM in data set [4] (setting [8]) and 84.5 ± 6.31 µM in data set [7]. The “N. fowleri ATCC 30808 SI (CC50/IC50)” value in data set [4] (trophozoite stage) is listed as 1.12. Moreover, the half-maximal cytotoxic concentration (CC50) at 24 h in data set [5] stood at 49.6 ± 5.65 µM.
